From ChEMBL document CHEMBL5338722, “Optical-Controlled Kinetic Switch: Fine-Tuning of the Residence Time of an Antagonist Binding to the Vasopressin V2 Receptor in In Vitro, Ex Vivo, and In Vivo Models of ADPKD” (J Med Chem, 2023) come the findings set out here.

The target of data set [1] is T1, Vasopressin V2 receptor (Homo sapiens, UniProt P30518). Briefly: Displacement of conivaptan-red fluorescent probe from SNAP-tagged human vasopressin V2 receptor expressed in HEK293 cells compound pre-illuminated for 10 mins with light at 435 nm and further incubated for 1 hr by HTRF assay. The class given is cell-based. (Time-resolved FRET reads energy transfer from a long-lived donor to a nearby acceptor.)
T1 sequence (P30518 whole entry): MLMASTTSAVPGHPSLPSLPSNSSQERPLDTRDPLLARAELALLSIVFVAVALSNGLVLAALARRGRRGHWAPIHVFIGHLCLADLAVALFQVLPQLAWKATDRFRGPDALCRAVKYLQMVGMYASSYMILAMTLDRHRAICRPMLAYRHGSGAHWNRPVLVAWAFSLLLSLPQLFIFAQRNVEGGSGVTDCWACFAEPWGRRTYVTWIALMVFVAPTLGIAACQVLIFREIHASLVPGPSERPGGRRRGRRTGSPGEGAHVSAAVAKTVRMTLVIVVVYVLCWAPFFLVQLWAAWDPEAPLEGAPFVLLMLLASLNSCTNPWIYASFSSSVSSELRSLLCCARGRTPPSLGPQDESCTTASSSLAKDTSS

For data set [2], the target named is T1, Vasopressin V2 receptor. Briefly: Displacement of conivaptan-red fluorescent probe from SNAP-tagged human vasopressin V2 receptor expressed in HEK293 cells at 10 uM compound pre-illuminated for 10 mins with light at 365 nm and further incubated for 1 hr by HTRF assay relative to control. The class given is cell-based. The settings on record: filed as antagonist.

Data set [3] has as its target T1, Vasopressin V2 receptor. Put plainly: Displacement of conivaptan-red fluorescent probe from SNAP-tagged human vasopressin V2 receptor expressed in HEK293 cells compound pre-illuminated for 10 mins with light at 365 nm and further incubated for 1 hr by HTRF assay. The class given is cell-based.
The target of data set [4] is Vasopressin V1a receptor (Homo sapiens) (UniProt P37288). Put plainly: Displacement of [3H]vasopressin from human V1A receptor expressed in CHO cell membranes at 1 uM compound pre-illuminated for 10 mins with light at 435 nm by radioligand displacement assay relative to control. The settings on record: Membrane. (In general: In a radioligand displacement assay an active substance lowers the binding of a labelled ligand.)
Vasopressin V1a receptor (Homo sapiens), sequence (P37288 whole entry, looked up): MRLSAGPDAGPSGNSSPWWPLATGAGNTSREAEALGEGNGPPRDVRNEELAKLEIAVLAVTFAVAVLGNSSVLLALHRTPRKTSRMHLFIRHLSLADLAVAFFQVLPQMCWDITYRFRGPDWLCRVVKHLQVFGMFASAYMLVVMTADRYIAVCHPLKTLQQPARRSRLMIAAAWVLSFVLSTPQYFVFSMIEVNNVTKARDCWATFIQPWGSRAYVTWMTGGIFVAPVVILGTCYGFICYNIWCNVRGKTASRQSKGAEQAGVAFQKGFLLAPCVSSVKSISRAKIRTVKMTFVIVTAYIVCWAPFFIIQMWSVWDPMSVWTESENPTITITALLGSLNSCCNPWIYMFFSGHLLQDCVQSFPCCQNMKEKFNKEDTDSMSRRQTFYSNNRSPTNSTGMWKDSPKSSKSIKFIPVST

Data set [5] deals with T1, Vasopressin V2 receptor. Put plainly: Displacement of conivaptan-red fluorescent probe from SNAP-tagged human vasopressin V2 receptor expressed in HEK293 cells assessed as kinetic rate index by measuring ratio of binding of labeled probe at 15 mins to 60 mins at IC50 compound pre-illuminated for 10 mins with light at 435 nm by dual-point competition association assay. The class given is cell-based. The following applies: filed as antagonist.

For data set [6], the target named is T1, Vasopressin V2 receptor. Put plainly: Displacement of conivaptan-red fluorescent probe from SNAP-tagged human vasopressin V2 receptor expressed in HEK293 cells assessed as residence time at 1 uM compound pre-illuminated for 10 mins with light at 435 nm by dual-point competition association assay. The class given is cell-based. The following applies: filed as antagonist.

Data set [7] concerns the target T1, Vasopressin V2 receptor. Briefly: Displacement of conivaptan-red fluorescent probe from SNAP-tagged human vasopressin V2 receptor expressed in HEK293 cells assessed as on-rate constant at 1 uM compound pre-illuminated for 10 mins with light at 435 nm by dual-point competition association assay. In kind it is cell-based. The settings on record: filed as antagonist.

Data set [8] has as its target T1, Vasopressin V2 receptor. Briefly: Displacement of conivaptan-red fluorescent probe from SNAP-tagged human vasopressin V2 receptor expressed in HEK293 cells assessed as off-rate constant at 1 uM compound pre-illuminated for 10 mins with light at 435 nm by dual-point competition association assay. In kind it is cell-based. The following applies: filed as antagonist.

The target in data set [9] is T1, Vasopressin V2 receptor. Briefly: Antagonist activity at human vasopressin V2 receptor expressed in CHO cells assessed as inhibition of vasopressin induced cAMP production at 10 times Ki preincubated for 30 mins followed by two consecutive washouts and irradiated with light at 365 nm during two washouts. In kind it is functional, cell-based. The following applies: filed as antagonist. For orientation: cAMP levels reflect the balance of adenylyl cyclase and phosphodiesterase activity.

Data set [10] deals with T1, Vasopressin V2 receptor. Put plainly: Antagonist activity at human vasopressin V2 receptor expressed in CHO cells assessed as inhibition of AVP-induced cAMP production at 1 uM preincubated for 30 mins followed by two consecutive washouts and irradiated with light at 365 nm during two washouts. In kind it is functional, cell-based. The following applies: filed as antagonist.

The test system of data set [11] is Kidney. Briefly: Ex vivo inhibition of renal cystogenesis in ADPKD C57BL/6 mouse kidney assessed as suppression of 8-Br-cAMP-induced cyst development at 10 uM measured after 4 days in presence of 8-Br-cAMP by inverted microscopic analysis. In kind it is functional, tissue-based. The settings on record: time 4.0 day.
Data set [12] deals with Kidney. Put plainly: Ex vivo target occupancy at vasopressin V2 receptor in Sprague-Dawley rat kidney assessed as endurance in retention time by measuring half life at 0.1 uM treated for 30 mins followed by extensive drug wash-out for 240 mins by LC-MS analysis. The class given is functional, tissue-based.
Data set [13] is described as follows: Drug uptake in Sprague-Dawley rat kidney at 0.1 uM treated for 30 mins followed by extensive drug wash-out for 4 hrs by LC-MS analysis. The class given is ADME, tissue-based. The settings on record: in vivo, 0.5 h.
The subject of a further data set is Mus musculus. Briefly: In vivo inhibition of renal cystogenesis in Pkd1 knock-out autosomal dominant polycystic kidney disease mouse model assessed as reduction in kidney size at 5 mg/kg, sc administered once daily for 7 days compound pre-irradiated with light at 435 nm prior to administration. The following applies: time 7.0 day. The class given is functional, organism-based.

Data set [14] is described as follows: In vivo inhibition of renal cystogenesis in Pkd1 knock-out autosomal dominant polycystic kidney disease mouse model assessed as disease progression at 5 mg/kg, sc administered once daily for 7 days compound pre-irradiated with light at 435 nm prior to administration. The arrangement: scale not given: the % may be the effect or the level left. The class given is functional. The settings on record: time 7 day.

Calls of active or inactive are those of the source. The calls are words filed in the database; no cut-off is given here.

In turn, `Cc1ccc(F)cc1/N=N/c1ccc(C(=O)N2Cc3cccn3Cc3ccccc32)c(Cl)c1` had an inhibitory constant (Ki) at Vasopressin V2 receptor [1] of 577 nM.

The compound `O=C(c1ccc(/N=N\c2ccc(-c3ccccc3)cc2)cc1Cl)N1Cc2cccn2Cc2ccccc21` gave an inhibition on Vasopressin V2 receptor [2] of 51%.

`O=C(c1ccc(/N=N\c2ccc(F)cc2)cc1Cl)N1Cc2cccn2Cc2ccccc21` yielded an inhibitory constant (Ki) on Vasopressin V2 receptor [3] of 289 nM.

In turn, `O=C(c1ccc(/N=N\c2ccc(C(F)(F)F)cc2)cc1Cl)N1Cc2cccn2Cc2ccccc21` displayed a Ki on Vasopressin V2 receptor [3] of 5280 nM.

For the compound `O=C(c1ccc(/N=N/c2ccccc2)cc1Cl)N1Cc2cccn2Cc2ccccc21`, the Ki on Vasopressin V2 receptor [1] was 289 nM.

Compound `Cc1cccc(/N=N/c2ccc(C(=O)N3Cc4cccn4Cc4ccccc43)c(Cl)c2)c1` returned an inhibition constant (Ki) at Vasopressin V2 receptor [1] of 355 nM.

With `Cc1ccc(/N=N/c2ccc(C(=O)N3Cc4cccn4Cc4ccccc43)c(Cl)c2)cc1`, the inhibition in [4] is less than 40%. The Ki at Vasopressin V2 receptor [1] is 281 nM. Besides, the Ratio on Vasopressin V2 receptor [5] worked out at 0.95. Further, the TIME on Vasopressin V2 receptor [6] was 0.25 h. Also, the values for the K at Vasopressin V2 receptor [7] and on Vasopressin V2 receptor [8] were 1.1 10^5/M/min and 0.068 min⁻¹, respectively. Also, the inhibition result on Vasopressin V2 receptor [9], on Vasopressin V2 receptor [10], with Kidney [11] and in the data set on Mus musculus was “Active” each time. The T1/2 in the data set with Kidney [12] came to 29 min. Besides, the Drug uptake in data set [13] came out at 10 nM. Besides, the Activity in [14] is listed as 18.2%.

On to `Cc1ccc(F)cc1/N=N\c1ccc(C(=O)N2Cc3cccn3Cc3ccccc32)c(Cl)c1`, for which the affinity on Vasopressin V2 receptor [3] corresponds to a Ki of 1700 nM.

As to `O=C(c1ccc(/N=N/c2ccccc2-c2ccccc2)cc1Cl)N1Cc2cccn2Cc2ccccc21`, the inhibition constant Ki on Vasopressin V2 receptor [1] was found to be 279 nM.

Compound `O=C(c1ccc(/N=N/c2ccc(C(F)(F)F)cc2)cc1Cl)N1Cc2cccn2Cc2ccccc21` displayed a Ki at Vasopressin V2 receptor [1] of 589 nM.

The Ki is the dissociation constant of the complex between target and ligand, obtained from inhibition or displacement. Broadly, the inhibition is the change of the read-out against control, counted positive when it falls.
